Paper PMC6684654 (Nature Communications, 2019)
Read-outs that look alike come from different tables or passages of the source.

How the values were obtained:
Type in all cases: cell-based
E. coli ATCC25922 [1] = assay: MIC, broth microdilution; settings: Escherichia coli
Excerpt: (§1) MIC values were identified through microdilution in sterilized 96-well polypropylene microtiter plates according to the broth microdilution guideline of the Clinical and Laboratory Standards Institute[30]. The test medium was Mueller–Hinton broth (MHB), and the strain concentrations were adjusted to 5 × 10^5 CFU/mL.

E. coli ATCC35218 = assay: MIC, broth microdilution; settings: Escherichia coli
Excerpt: as §1

K. pneumoniae ATCC13883 [2] = assay: MIC, broth microdilution; settings: Klebsiella pneumoniae
Excerpt: as §1

NDM-1 E. coli XJ141015 [3] = assay: MIC, broth microdilution; settings: Escherichia coli, 16 h
Excerpt: as §1

NDM-1 E. coli XJ141026 [4] = assay: MIC, broth microdilution; settings: Escherichia coli, 16 h
Excerpt: as §1

NDM-1 E. coli XJ141047 [5] = assay: MIC, broth microdilution; settings: Escherichia coli, 16 h
Excerpt: as §1

[6] = tested on: NDM-1 K. pneumoniae XJ155017; assay: MIC, broth microdilution; settings: Klebsiella pneumoniae, 16 h
Excerpt: as §1

[7] = tested on: NDM-1 K. pneumoniae XJ155018; assay: MIC, broth microdilution; settings: Klebsiella pneumoniae, 16 h
Excerpt: as §1

[8] = tested on: NDM-1 K. pneumoniae XJ155019; assay: MIC, broth microdilution; settings: Klebsiella pneumoniae, 16 h
Excerpt: as §1

[9] = tested on: NDM-1 K. pneumoniae XJ155020; assay: MIC, broth microdilution; settings: Klebsiella pneumoniae, 16 h
Excerpt: as §1

E. coli ATCC25922 [10] = assay: Antibiotic susceptibility (MIC), automated identification system; settings: Supplementary Table 1; for MIC: Escherichia coli, ATCC25922
Excerpt: (§2) Clinical isolate strains were identified and screened by the Phoenix 100 automated bacterial identification system to rapidly detect antimicrobial resistance. Total DNA was extracted by the TIANamp Bacteria DNA Kit according to the manufacturer’s protocol. The presence of blaNDM-1 was confirmed using a diagnostic kit for NDM-1 (Puruikang Bio Inc., Shenzhen, China) based on fluorescent quantitative polymerase chain reaction assay. According to the instruction, Ct values of less than 37 were considered positive.

K. pneumoniae ATCC13883 [11] = assay: as above; settings: Supplementary Table 2; for MIC: Klebsiella pneumoniae, ATCC13883
Excerpt: as §2

NDM-1 E. coli XJ141015 [12] = assay: as above; settings: Supplementary Table 1; for MIC: Escherichia coli
Excerpt: as §2

NDM-1 E. coli XJ141026 [13] = assay: as above; settings: Supplementary Table 1; for MIC: Escherichia coli
Excerpt: as §2

NDM-1 E. coli XJ141047 [14] = assay: as above; settings: Supplementary Table 1; for MIC: Escherichia coli
Excerpt: as §2

[15] = tested on: NDM-1 K. pneumoniae XJ155017; assay: as above; settings: Supplementary Table 2; for MIC: Klebsiella pneumoniae
Excerpt: as §2

[16] = tested on: NDM-1 K. pneumoniae XJ155018; assay: as above; settings: Supplementary Table 2; for MIC: Klebsiella pneumoniae
Excerpt: as §2

[17] = tested on: NDM-1 K. pneumoniae XJ155019; assay: as above; settings: Supplementary Table 2; for MIC: Klebsiella pneumoniae
Excerpt: as §2

[18] = tested on: NDM-1 K. pneumoniae XJ155020; assay: as above; settings: Supplementary Table 2; for MIC: Klebsiella pneumoniae
Excerpt: as §2

NDM-1 E. coli XJ141015 [19] = assay: Kirby Bauer disc diffusion
Excerpt: (§3) Supplementary Table 1. Identification and antibiotic susceptibility of NDM-1-producing E. coli strains. […]
(§4) Cefoperazone/ sul bact am KB — — 7 (R) 7 (R) 7 (R)
(§5) Nitrofurantoi n KB — — 14 (R) 17 (R) 19 (S) […]
(§6) R, resistant; S, sensitive; M IC , minimum inhibitory concentration; KB, Kirb y Bauer disc diffusion method.
(§7) The unit of M IC is “ μ g/ mL”. The unit of KB is “ mm” .

NDM-1 E. coli XJ141026 [20] = assay: Kirby Bauer disc diffusion
Excerpt: as §3, §4, §5, §6, §7

NDM-1 E. coli XJ141047 [21] = assay: Kirby Bauer disc diffusion
Excerpt: as §3, §4, §5, §6, §7

K. pneumoniae ATCC13883 [22] = assay: Kirby Bauer disc diffusion
Excerpt: (§8) Supplementary Ta b l e 2. Identification and anti biotic susceptibility of NDM-1-producing K. pneumonia strains.
(§9) Antibiotics NDM-1 NDM-1 NDM-1 NDM-1 […]
(§10) Cefoperazone/ sul bact am KB 32 (S) 7 (R) 7 (R) 7 (R) 7 (R)
(§11) Nitrofurantoi n KB 21 (S) 7 (R) 9 (R) 10 (R) 9 (R) […]
(§12) R, resistant; S, sensitive; M IC , minimum inhibitory concentration; KB, Kirb y Baue r disc diffusion method .
(§13) The unit of M IC is “μg/mL”. The unit of KB is “mm”.

[23] = tested on: NDM-1 K. pneumoniae XJ155017; assay: Kirby Bauer disc diffusion
Excerpt: as §8, §9, §10, §11, §12, §13

[24] = tested on: NDM-1 K. pneumoniae XJ155018; assay: Kirby Bauer disc diffusion
Excerpt: as §8, §9, §10, §11, §12, §13

[25] = tested on: NDM-1 K. pneumoniae XJ155019; assay: Kirby Bauer disc diffusion
Excerpt: as §8, §9, §10, §11, §12, §13

[26] = tested on: NDM-1 K. pneumoniae XJ155020; assay: Kirby Bauer disc diffusion
Excerpt: as §8, §9, §10, §11, §12, §13

[27] = Klebsiella pneumoniae, read-out: KB disc diffusion

Structure (SMILES) | MIC (NDM-1 E. coli XJ141015 [3]) [µg/mL] | MIC (NDM-1 E. coli XJ141026 [4]) [µg/mL] | MIC (NDM-1 E. coli XJ141047 [5]) [µg/mL] | MIC [6] [µg/mL] | MIC [7] [µg/mL] | MIC [8] [µg/mL] | MIC [9] [µg/mL] | MIC (E. coli ATCC25922 [10]) [µg/mL] | susceptibility class (MIC) (E. coli ATCC25922 [10]) | MIC (K. pneumoniae ATCC13883 [11]) [µg/mL] | susceptibility class (MIC) (K. pneumoniae ATCC13883 [11]) | MIC (NDM-1 E. coli XJ141015 [12]) [µg/mL] | susceptibility class (MIC) (NDM-1 E. coli XJ141015 [12]) | MIC (NDM-1 E. coli XJ141026 [13]) [µg/mL] | susceptibility class (MIC) (NDM-1 E. coli XJ141026 [13]) | MIC (NDM-1 E. coli XJ141047 [14]) [µg/mL] | susceptibility class (MIC) (NDM-1 E. coli XJ141047 [14]) | MIC [15] [µg/mL] | susceptibility class (MIC) [15] | MIC [16] [µg/mL] | also measured
CO/N=C(\C(=O)N[C@@H]1C(=O)N2C(C(=O)O)=C(COC(C)=O)CS[C@H]12)c1csc(N)n1 [Cefotaxime] | > 256 | > 256 | > 256 | > 256 | > 256 | > 256 | > 256 | ≤ 1 | S | ≤ 1 | S | > 32 | R | > 32 | R | > 32 | R | > 32 | R | > 32 | MIC (E. coli ATCC25922 [1]; ATCC25922, 16 h): < 0.125 µg/mL; MIC (E. coli ATCC35218; ATCC35218, 16 h): < 0.125 µg/mL; MIC (K. pneumoniae ATCC13883 [2]; ATCC13883, 16 h): < 0.125 µg/mL; susceptibility class (MIC) [16]: R; MIC [17]: > 32 µg/mL; susceptibility class (MIC) [17]: R; MIC [18]: > 32 µg/mL; susceptibility class (MIC) [18]: R
CC(C)(O/N=C(\C(=O)N[C@@H]1C(=O)N2C(C(=O)[O-])=C(C[n+]3ccccc3)CS[C@H]12)c1csc(N)n1)C(=O)O [Ceftazidime] | > 256 | > 256 | > 256 | > 256 | > 256 | > 256 | > 256 | ≤ 1 | S | ≤ 1 | S | > 16 | R | > 16 | R | > 16 | R | > 16 | R | > 16 | MIC (E. coli ATCC25922 [1]; ATCC25922, MHB, 5 × 10^5 CFU/mL, 16 h, 37 °C, read-out: MIC): < 0.125 µg/mL; MIC (E. coli ATCC35218; ATCC35218, MHB, 5 × 10^5 CFU/mL, 16 h, 37 °C, read-out: MIC): < 0.125 µg/mL; MIC (K. pneumoniae ATCC13883 [2]; ATCC13883, MHB, 5 × 10^5 CFU/mL, 16 h, 37 °C, read-out: MIC): < 0.125 µg/mL; susceptibility class (MIC) [16]: R; MIC [17]: > 16 µg/mL; susceptibility class (MIC) [17]: R; MIC [18]: > 16 µg/mL; susceptibility class (MIC) [18]: R
CO/N=C(\C(=O)N[C@@H]1C(=O)N2C(C(=O)O)=C(COC(N)=O)CS[C@H]12)c1ccco1 [Cefuroxime] | – | – | – | – | – | – | – | – | – | – | – | – | – | – | – | – | – | – | – | – | susceptibility class (KB) (NDM-1 E. coli XJ141015 [19]): R; susceptibility class (KB) (NDM-1 E. coli XJ141026 [20]): R; susceptibility class (KB) (NDM-1 E. coli XJ141047 [21]): R; inhibition zone diameter (NDM-1 E. coli XJ141047 [21]; Escherichia coli, read-out: KB disc diffusion): 7 mM; susceptibility class (KB) (K. pneumoniae ATCC13883 [22]): S; inhibition zone diameter (K. pneumoniae ATCC13883 [22]; Klebsiella pneumoniae, ATCC13883, read-out: KB disc diffusion): 23 mM; susceptibility class (KB) [23]: R; inhibition zone diameter (Kirby-Bauer disc diffusion) [23, 27]: 7 mM; susceptibility class (KB) [24]: R; inhibition zone diameter [24, 27]: 7 mM; susceptibility class (KB) [25]: R; susceptibility class (KB) [26]: R; disc diffusion inhibition zone diameter [26, 27]: 7 mM
